Experimental data: patent publication US6756410B2, “Induction of LDL receptor expression by extracellular-signal regulated kinase, ERK-1/2” (priority 2000, dated 2004)
“Also recorded” adds a separate entry of the source.

How the values were obtained:
LDL receptor = LDL receptor mRNA expression, Northern blot in HepG2-ΔRaf-1:ER cells; assay type: cell-based, human
Procedure: Northern blotting was done under identical conditions to measure RNA levels of LDL receptor, SS, and actin genes.
Total RNA was analyzed by Northern blot for measuring LDL receptor mRNA levels.
LDL receptor and SS mRNA levels were determined by Northern blotting. Results shown are indicative of two separate experiments.
Cells either untreated or pretreated with different concentrations of sterols (1, 2 or 5 μg/ml 25-hydroxycholesterol and 10 μg/ml cholesterol) were induced with ICI182,780 (1 μM) for 4 h. Total RNA was subjected to Northern blotting to determine mRNA levels of LDL receptor and squalene synthase.
Total RNA was isolated by the TRIzol reagent (GIBCO-BRL), according to the manufacturer's protocol. RNA was stored under ethanol. Aliquots containing 20 μg RNA were electrophoresed through a 1%-agarose-formaldehyde gel and transferred to a nylon membrane (BioRad) followed by hybridization. Hybridization probes for LDL receptor, actin, and SS, labeled with ^32P, were prepared using the M13 universal primer. Hybridizations were performed at 45° C., and after final washing at 55° C. for 30 min, filters were exposed to Kodak x-ray film. The relative intensities of specific bands were determined densitometrically within the linear range of film on a model 300A laser densitometer (Molecular Dyanamics) using Image Quant software.

[1] = tested on: human LDL receptor promoter; experiment: LDL receptor promoter-luciferase reporter (construct A) in HepG2-ΔRaf-1:ER cells; assay type: cell-based; settings: for transcriptional (activating) effect of ICI182,780 on the human LDL receptor promoter in presence of inhibitor: 1 μM ICI182,780, PD98059 50 μM, staurosporine 1 μM, curcumin 20 μM
Procedure: HepG2-ΔRaf-1:ER cells were cotransfected with LDL receptor promoter-luciferase reporter (plasmid A) and β-galactosidase-reporter. After 24 hours, cells were grown in a medium containing 0.2% serum for 12 h, followed by addition of 1 μM ICI182,780 for the last 24 h in the absence or presence of indicated inhibitor. […] Sterols (2 μg/ml 25-hydroxycholesterol and 10 μg/ml cholesterol) were added to examine sensitivity to sterols. After the treatment both luciferase and β-galactosidase activities were measured according to the method previously described (24). The results are presented as means ±S.E. and represent at least three individual experiments.
A human low density lipoprotein receptor promoter-luciferase construct A (24) was used to determine the response of the low density lipoprotein receptor promoter to activation of the p42/44^MAPK pathway. HepG2-ΔRaf-1:ER cells were transfected with 0.6 μg of reporter plasmid and 0.25 μg of SV-βGal plasmid by lipofectamine technique, as described previously (Mehta et al., 1996). Cells were washed after 12 h, and after another 12 h the cells were treated with 1 μM ICI182,780 for 36 h, and the controls were treated with ethanol. PBS-washed cells were harvested in 250 mM Tris-Cl, pH 7.5, and lysed in the lysis buffer. The luciferase activities of the cell lysates were measured according to the manufacture's recommendations (Promega). Luciferase assays were carried out in triplicate. In FIG. 6, the data are shown as means of three experiments and the fold induction represents the difference between the means of the samples with ICI182,780 and that of the control. Luciferase activity was normalized for β-galactosidase activity.
To study the role of serine/threonine protein kinases in the activation of the LDL receptor promoter by p42/44^MAPK, HepG2 cells were transiently transfected with construct A. Sixteen hours after transfection, the cells were treated for 1 h with the indicated inhibitor, and then with ICI182,780 in the continued presence of inhibitor.
Because the primary effect of p42/44^MAPK activation is exerted at the transcriptional levels, it was next determined whether ICI182,780 treatment modulated activity of the low density lipoprotein receptor promoter. A low density lipoprotein receptor promoter/luciferase reporter construct A (Mehta et al., 1996), containing promoter sequences from −273 to +35, was transfected into HepG2-ΔRaf-1:ER cells. Both sets of transfected cells were exposed to ICI182,780 for 36 h, after which luciferase activity was determined.

p42/44^MAPK = experiment: p42/44MAPK phosphorylation, immunoblot with phospho-specific antibody in HepG2-ΔRaf-1:ER cells; assay type: cell-based, human
Procedure: HepG2 cells were treated with indicated doses of ICI182,780 for 4 hours. Phospho-specific p42/44^MAPK antibody was used to monitor p42/44^MAPK phosphorylation/activation, and phosphorylation-independent p42/44^MAPK antibody was used to measure total p42/44^MAPK protein.
(§1) Cells were scraped in phosphate-buffered saline (PBS) and centrifuged, and the pellet was resuspended in lysis buffer (50 mM Tris-Cl [pH 7.5], 150 mM NaCl, 10 mM MgCl2, 1 mM dithiothreitol, 10 mM NaF, 0.5 mM Na3VO4, 0.5% Nonidet P-40, 10 μg of aprotinin/ml, and 100 μg of phenylmethylsulfonyl fluoride per ml). Protein concentration was measured by the Bio-Rad protein assay. Protein (30 to 50 μg) was resolved by sodium dodecyl sulfate-polyacrylamide gel electrophoresis (SDS-PAGE) and transferred onto Immobilon P membranes (Millipore). The filter was blocked in 2.5% skim milk with 0.1% Tween 20 in PBS for 2 h followed by incubation with the specific antibody. The following antibodies were used: polyclonal rabbit antibodies against phosphorylation-independent p42/44^MAPK, phospho-specific-p42/44^MAPK, and phospho-specific or phosphorylation-independent Raf-1 kinase. Reactive proteins were detected with horseradish peroxidase-conjugated secondary antibodies and visualized with an ebb enhanced chemiluminescence detection kit (Amersham Pharmacia Biotech).

Raf-1 kinase = Raf-1 kinase phosphorylation, immunoblot in HepG2-ΔRaf-1:ER cells; assay type: cell-based, human; settings: 30 min pretreatment, then 1 μM ICI182,780
Procedure: Total cell extracts were subjected to immunoblotting using the phosphorylation-independent and phospho-specific Raf-1 kinase antibodies. The same blot was later probed with the phospho-specific p42/44^MAPK antibody.
as §1

HepG2-ΔRaf-1:ER cells [2] = experiment: DNA synthesis, [3H]thymidine incorporation; assay type: cell-based, human; settings: ICI182,780 0 to 1 μM for 18 h or 1 μM over time
Procedure: Cells in a 24-well dishes were either treated with different ICI182,780 concentrations from 0 to 1 μM for 18 h (top panel) or with 1 μM of ICI182,780 for time periods as indicated in the abscissa of the graph (bottom panel). DNA synthesis was measured by the incorporation of [^3H]thymidine during the final 4 h. Each point represents the mean of three determinations and is representative of at least two independent experiments.
Proliferation was measured with the [^3H]thymidine uptake assay (Amersham), with [^3H]thymidine (1.0 μCi/ml) present in the medium for 4 h prior to harvesting.

p21^Cip1 = experiment: p21Cip protein expression, immunoblot; assay type: cell-based, human
Procedure: (§2) Cells were cultured in the absence or presence of 1 μM ICI182,780. Equal amounts of total protein (40 μg) were resolved by SDS-PAGE, transferred to Immobilon P membrane and probed with antibodies specific for cyclin A and p21^Cip.
as §1

cyclin A = experiment: Cyclin A protein expression, immunoblot; assay type: cell-based, human; settings: 1 μM ICI182,780
Procedure: as §2, §1

HepG2-ΔRaf-1:ER cells [3] = experiment: Colony staining (colony formation); assay type: cell-based, human; settings: maintained with ICI182,780; results not shown
Procedure: Cells were seeded at a density of 10,000 cells per 60 mm dish and maintained with or without ICI182,780 for varying periods. Colonies were stained by addition of 0.5 ml methylene blue solution for 30 min followed by washing.

HepG2 cells = experiment: Growth curves of HepG2 cells (cell counting); assay type: cell-based, human; settings: 1 μM ICI182,780
Procedure: (§3) Log-phase cells were seeded at 10^5 cells per 60 mm dish. After 36 h the medium was changed to medium containing either 1 μM ICI182,780 or no ICI182,780. At the indicated times, cells were trypsinized and counted.

HepG2-ΔRaf-1:ER cells [4] = experiment: Light microscopic examination of cell morphology; assay type: cell-based; settings: 1 μM ICI182,780, 24 h
Procedure: Cells treated with 1 μM of the ICI182,780 for 24 h were examined by optical microscopy. […] Representative photomicrographs of HepG2-ΔRaf-1:ER cells either untreated or treated with ICI182,780 were taken at low and high cell density regions of the cultured plate by using microscope.
The phenotype seen in ICI182,780-treated cells may resemble the situation of terminal differentiation, in which cells (for example, neurons) show differentiation in the absence of DNA replication.

HepG2-ΔRaf-1:ER cells [5] = experiment: Cell cycle analysis by propidium iodide FACS; assay type: cell-based, human; settings: 1 μM ICI182,780, 18 h and 36 h
Procedure: The percentage of cells in the G1, S and G2 phases of the cell cycle is given for the control and ICI182,780 treated cells.
Cells (5×10^5) were seeded on 100 mm dishes and 2 days later the medium was replaced with medium containing 1 μM ICI182,780. After 18 h and 36 h, attached cells were trypsinized, centrifuged, washed in phosphate-buffered saline, resuspended in 1 ml phosphate-buffered saline, fixed in 1 ml of cold ethanol for overnight at 4° C., centrifuged again, washed once with saline, and resuspended in 0.1% bovine serum albumin containing 50 μg/ml ribonuclease and 50 μg/ml propidium iodide (Sigma), and then analysed in a fluoroscence-activated cell sorter (FACSORT, Becton Dickinson). Data were analysed using the Cellfit program.

HepG2-ΔRaf-1:ER cells [6] = experiment: Growth curves of HepG2-ΔRaf-1:ER cells (cell counting); assay type: cell-based, human; settings: 1 μM ICI182,780
Procedure: as §3

[7] = 30 min pretreatment, then 1 μM ICI182,780
[8] = clone B, ICI182,780 0 to 1 μM, 4 hours

With COc1cc(C=CC(=O)CC(=O)C=Cc2ccc(O)c(OC)c2)ccc1O [curcumin, 1,7-bis [4-hydroxy-3-methoxyphenyl]-1,6-heptadiene-3,5-dione] the “increase in LDL receptor expression caused by ICI182,780 in presence of curcumin” value (LDL receptor; 60 μM curcumin, endogenous gene) was “totally suppressed”, the “time of treatment at which the blocking effect was complete” value (LDL receptor; curcumin, kinetic studies) was 4 to 6 h and the “transcriptional (activating) effect of ICI182,780 on the human LDL receptor promoter in presence of inhibitor” value (“transcriptional … of inhibitor” for short) [1] was “completely suppressed”. The “ICI182,780-dependent p42/44MAPK activation in presence of curcumin” value (p42/44^MAPK; curcumin before 1 μM ICI182,780) was “without affecting”.

For CN[C@@H]1C[C@H]2O[C@@](C)([C@@H]1OC)n1c3ccccc3c3c4c(c5c6ccccc6n2c5c31)C(=O)NC4 [staurosporine], the “ICI182,780-induced LDL receptor expression after staurosporine pretreatment” value (LDL receptor; [7]) was “loss of LDL receptor induction”, the “Raf-1 kinase phosphorylation after staurosporine pretreatment” value (Raf-1 kinase) was “inhibition of phosphorylation” and the “transcriptional … of inhibitor” value [1] was “suppressed”. The “ICI182,780-induced p42/44MAPK phosphorylation after staurosporine pretreatment” value (p42/44^MAPK; [7]) was “inhibition of phosphorylation”.

In the case of COc1cccc(-c2cc(=O)c3ccccc3o2)c1N [PD98059, 2-(2′-amino-3′-methoxyphenyl)-oxanaphthalene-4-one], the “p42/44MAPK induced LDL receptor expression after PD98059” value (LDL receptor; PD98059 pretreatment 30 min, then 1 μM ICI182,780) is reported as “significantly inhibited”, the “transcriptional … of inhibitor” value [1] is reported as “suppressed” and the “p42/44MAPK phosphorylation and activation after PD98059” value (p42/44^MAPK; 20 μM PD98059 for 30 min before ΔRaf-1:ER activation, data not shown) is reported as “inhibited phosphorylation and activation”.

In the case of C[C@]12CC[C@@H]3c4ccc(O)cc4C[C@@H](CCCCCCCCC[S+]([O-])CCCC(F)(F)C(F)(F)F)[C@H]3[C@@H]1CC[C@@H]2O (some centres unmarked) [ICI182,780], the “time of maximal induction of LDL receptor expression” value (LDL receptor; 1 μM ICI182,780, 1 to 16 h) is reported as 3 to 4 h, the “increase in LDL receptor expression” value (LDL receptor; [8]) is reported as “dependent on ICI182,780 concentration” and the “DNA synthesis ([3H]thymidine incorporation)” value (HepG2-ΔRaf-1:ER cells [2]) is reported as “inhibition of DNA synthesis”. For the same molecule, the “duration of sustained high p21Cip1 levels” value (p21^Cip1; 1 μM ICI182,780) was “at least 24 h”, the p21Cip1 expression (p21^Cip1; 1 μM ICI182,780, between 30 and 120 min of treatment) was “strong increase” and the “cyclin A protein expression” value (cyclin A) was “strong down-regulation”. The “ability to form colonies” value (HepG2-ΔRaf-1:ER cells [3]) was “reduced their ability to form colonies”, the “lowest concentration at which promoter activation was detected” value ([1]; construct A) was 0.5 µM and the “increase of luciferase expression driven by the LDL receptor promoter” value ([1]; construct A (-273 to +35), 1 μM ICI182,780 for 36 h, normalized for β-galactosidase) was 4 to 6 fold. The “luciferase activity, promoterless luciferase vector” value ([1]; transfected cells containing the promoterless luciferase vector, ICI182,780 treatment) was “virtually no change in luciferase activity”, the “cell growth of HepG2 cells” value (HepG2 cells) was “no growth arrest” and the “time at which p42/44MAPK phosphorylation was clearly detected” value (p42/44^MAPK; 1 μM ICI182,780, 1 to 16 h) was 1 h. The “time of maximal p42/44MAPK phosphorylation response” value (p42/44^MAPK; 1 μM ICI182,780, 1 to 16 h) was 2 h, the “increase in p42/44MAPK phosphorylation” value (p42/44^MAPK; [8]) was “dependent on ICI182,780 concentration” and the “morphological appearance of treated cells” value (HepG2-ΔRaf-1:ER cells [4]) was “larger with neuronal like structures (i.e. filopodia), and less refractile than untreated cells”. For the same molecule, the “signs of cell stress or death” value (HepG2-ΔRaf-1:ER cells [4]) was “no indication that ICI-treated cells were under stress or dying; also recorded: did not exhibit membrane blebbing and/or increase in the number of rounded and/or detached cells”, the cell cycle distribution (HepG2-ΔRaf-1:ER cells [5]) was “modest increase in the fraction of cells found in the G2/M phase with a concomitant decrease in S phase” and the “cell growth of HepG2-ΔRaf-1:ER cells” value (HepG2-ΔRaf-1:ER cells [6]) was “arrested the growth”.
